According to PMC5300155, “Biochemical and biophysical investigations of the interaction between human glucokinase and pro-apoptotic BAD” (PLoS ONE, 2017):

T1: human pancreatic GCK (Homo sapiens, UniProt P35557)
T1 construct: hexahistidine (N); made in house; host or cells: glucokinase auxotroph BM5340(DE3)
T1 sequence (P35557 1-465): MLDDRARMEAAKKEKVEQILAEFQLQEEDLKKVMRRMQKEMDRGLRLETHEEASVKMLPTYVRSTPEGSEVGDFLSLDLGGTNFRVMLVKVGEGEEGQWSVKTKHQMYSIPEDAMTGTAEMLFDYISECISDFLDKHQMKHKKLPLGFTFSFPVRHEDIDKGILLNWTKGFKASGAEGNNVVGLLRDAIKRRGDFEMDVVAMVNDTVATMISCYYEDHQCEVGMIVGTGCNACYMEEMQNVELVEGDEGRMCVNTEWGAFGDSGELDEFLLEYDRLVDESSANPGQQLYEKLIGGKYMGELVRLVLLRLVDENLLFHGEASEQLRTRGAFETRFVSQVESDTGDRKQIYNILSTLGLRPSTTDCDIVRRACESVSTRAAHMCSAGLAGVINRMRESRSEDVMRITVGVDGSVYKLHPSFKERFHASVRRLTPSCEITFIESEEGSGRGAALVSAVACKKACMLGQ

B1: BAD-GST: recombinant human BAD with N-terminal hexahistidine tag and C-terminal GST fusion, TEV consensus sequence between (protein)
chain: MFQIPEFEPSEQEDSSSAERGLGPSPAGDGPSGSGKHHRQAPGLLWDASHQQEQPTSSSHHGGAGAVEIRSRHSSYPAGTEDDEGMGEEPSPFRGRSRSAPPNLWAAQRYGRELRRMSDEFVDSFKKGLPRPKSAGTATQMRQSSSWTRVFQSWWDRNLGRGSSAPSQ
modifications: left off: His6, N-terminal, state not stated | GST, C-terminal, kept

Assays:
[1] = target: T2, Bcl-xL (Homo sapiens, UniProt Q07817, DEL45-84); assay: Fluorescence polarization competition with f-BH3 for binding to Bcl-xL
T2 construct: made in house
Description: Exon 1 of human bcl-xl lacking the C-terminal residues 189–233 was obtained from Stanley Korsmeyer (Addgene plasmid 8755) and site-directed mutagenesis was performed to create the Δ45–84, Δ210–233 variant. Bcl-xL was expressed and purified using a modified procedure described previously. Briefly, Bcl-xL was purified by nickel affinity chromatography and dialyzed against potassium phosphate buffer (20 mM, pH 7.4) containing NaCl (50 mM), EDTA (1 mM), and DTT (10 mM). Protein was applied to a Superdex 200 10/30 HR size-exclusion column, at a flow rate of 0.02 mL/min, to remove aggregate and oligomers prior to binding assays.
A fluorescence polarization assay developed by Zhang, et al. was utilized to measure interactions between BAD and its binding partners. Two 21-residue FITC-labeled peptides containing the BH3 domain of BAD were synthesized and purified to >95% by Peptide2.0 (f-BH3 = NLWAAQRYGRELRRMSDK(FITC)FVD; f-pBH3 = NLWAAQRYGRELRRM(p)SDK(FITC) FVD). Polarization was measured at room temperature with an excitation wavelength of 485 nm and an emission wavelength of 530 nm using a SpectraMax M5 microplate reader (Molecular Devices). Experiments to measure binding constants of the fluorescent peptides to Bcl-xL or GCK were performed in black 96-well plates. Each well contained 15 nM peptide, 60 μL BAD buffer (0.1 M Tris, 0.1 M KCl, 0.5 M arginine, 2.5 mM CHAPS, 5 mM TCEP, 10% glycerol, pH 8.5) and variable concentrations of Bcl-xL (0–2.25 μM) or GCK (0–400 μM) in assay buffer (20 mM phosphate buffer, pH 7.4, 1 mM EDTA, 50 mM NaCl, 10 mM DTT) in a final volume of 120 μL. High GCK concentrations were chosen in an effort to detect a signal indicating a binding event. Assays containing GCK also contained 250 mM glucose. […] Plates were incubated at room temperature in the dark for 15 min prior to polarization measurements.

[2] = target: T1, human pancreatic GCK; assay: GCK activity, G6PDH-linked assay (lab's routine assay, 25°C); format: biochemical
Description: (§1) Recombinant human pancreatic GCK containing an N-terminal hexahistidine tag was produced in the glucokinase auxotroph BM5340(DE3) and purified using a previously described procedure. TEV protease was expressed as a GST-fusion protein from a pGEX plasmid encoding the S219V variant, provided by David Waugh (Addgene plasmid 8827). Expression was induced with IPTG (1 mM) for 4 h at 30°C. Cell pellets were resuspended in Tris buffer (50 mM, pH 8.0) containing NaCl (100 mM), glycerol (10% v/v), benzamidine (1 mM) and dithiothreitol (10 mM) and lysed via French Press. Polyethyleneimine (0.1%) was added to the lysate and protein was purified on a glutathione-affinity column (GSTrap, GE Sciences). TEV protease was flash frozen and stored at -80°C for up to 1 month.
GCK activity was assayed using a glucose 6-phosphate dehydrogenase (G6PDH)-linked assay at 25°C. 50 nM GCK was assayed in buffer containing HEPES (100 mM, pH 7.4), KCl (50 mM), NADP^+ (0.5 mM), DTT (10 mM), MgCl2 (7 mM), G6PDH (1.5 U) and glucose (0–100 mM) in a total volume of […]. Addition of ATP (6 mM) initiated the reaction. Production of NADPH was measured at 340 nm. To determine the effect of BAD on GCK activity, 5 μL of BAD or buffer control was added to the reaction in a final volume of 100 μL. K0.5 values were determined by fitting to the Hill equation. The effect of BAD on GCK activity is reported as the percent rate increase at individual glucose concentrations, calculated as the average of a minimum of four rates of BAD-containing assays divided by the average of rates of BAD buffer-containing assays. The results represent the average of at least three independent preparations of pure BAD.

[3] = target: T1, human pancreatic GCK; assay: Isothermal titration calorimetry with GCK; format: binding; conditions: peptide up to 50 μM into GCK (10 μM), presence and absence of 0.2 M glucose, potassium phosphate 25 mM, DMSO 5%, 25°C
Description: as §1
Isothermal titration calorimetry was performed at 25°C using a MicroCal VP-ITC (GE Healthcare) instrument. Bcl-xL (100 μM) in BAD buffer (0.1 M Tris, 0.1 M KCl, 0.5 M arginine, 2.5 mM CHAPS, 5 mM TCEP, 10% glycerol, pH 8.5) was titrated into the calorimeter cell containing size-exclusion chromatography purified BAD-GST (10–18 μM) in 4 μL injections. A 21-residue phosphorylated peptide containing the BH3 domain of BAD was synthesized and purified to >95% by Peptide2.0 (pBH3 = NLWAAQRYGRELRRM(p)SDKFVD). The peptide (300 μM) in potassium phosphate buffer (25 mM) containing KCl (25 mM), TCEP (4 mM) and DMSO (5%) with and without glucose (200 mM) was titrated into the cell containing GCK (10 μM) previously dialyzed against the same buffer. GCK (100 μM) in BAD buffer was titrated into the cell containing S118D BAD-GST (10–15 μM) in 13 μL injections. Data were analyzed using Origin software.

T2 sequence (Q07817 with tags, fused parts or gaps DEL45-84): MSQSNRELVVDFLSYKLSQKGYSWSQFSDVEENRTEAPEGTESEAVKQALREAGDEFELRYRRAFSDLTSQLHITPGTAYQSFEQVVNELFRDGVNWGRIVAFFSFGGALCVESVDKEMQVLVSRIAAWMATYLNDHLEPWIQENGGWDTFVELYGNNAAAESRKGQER

Row | Molecule | Ability to interact with Bcl-xL (in words) ([1]; ITC and fluorescence polarization assays) | Hill coefficient H of GCK in presence of pBH3 ([2]; Fig 6B, GCK alone: H = 1.4) | K0.5 (glucose) of GCK in presence of pBH3 ([2]; Fig 6B, GCK alone: K0.5 = 4.6 mM, Hill equation fit) | kcat of GCK in presence of pBH3 ([2]; Fig 6B, GCK alone: kcat = 33.2 s^-1) | Change in GCK activity, peptide up to 50 μM ([2]; peptide concentrations up to 50 μM) | Effect on kcat, K0.5 or Hill coefficient of GCK (peptide) ([2]; peptide up to 5 μM) | Heat change on addition to GCK (ITC) [3] | Heat change on addition to GCK (ITC) ([3]; listed as phosphorylated BH3 peptide) | IC50 ([1]; 200 nM f-BH3, 50 nM Bcl-xL, competitor 0–50 μM, room temperature, 15 min) | Increase in GCK rate ([2]; 0.8 mM glucose, BAD-GST ≥ 2 μM, average of at least three independent BAD preparations) | Effect on kcat, K0.5 or Hill coefficient of GCK (BAD-GST) ([2]; BAD-GST 8 μM, variable glucose) | Stimulation of GCK activity (in words) ([2]; glucose 0.5–1.0 mM) | Increase in GCK activity (abstract) ([2]; high concentrations of recombinant BAD, glucose well below K0.5)
1 | NLWAAQRYGRELRRM(p)SDKFVD [pBH3, 21-residue phosphorylated peptide containing the BH3 domain of BAD] | significantly impaired in their ability to interact with Bcl-xL | 1.5 | 3.7 mM | 31.4 s^-1 | no change in GCK activity | does not impact the kcat, K0.5 or Hill coefficient of human GCK | No detectable heat change | do not indicate an interaction |  |  |  |  | 
2 | B1 |  |  |  |  |  |  |  |  | 130 nM | 10% | does not alter the kcat, K0.5 or Hill coefficient of GCK | small, but statistically significant extent | < 15%
